Assay results reported in patent US9796711B2, “Substituted pyrazolo[3,4-b]pyridin-6-carboxylic acids and method of use” (AbbVie S.àr.l., priority 2015, dated 2017).

Assays:
ΔF508-CFTR [1] = molecular target: T1, ΔF508-CFTR (Homo sapiens, UniProt P13569, DEL508-508); assay: CFTR cell surface levels using HRP-tagged ΔF508-CFTR expressing CFBE cells, in the presence of a co-corrector; assay type: cell-based; details: HRP-tagged ΔF508-CFTR expressing CFBE cells, in the presence of 3 μM co-corrector; for EC50: read-out: EC50
T1 construct: host or cells: CFBE41o-, doxycycline-inducible
T1 sequence (P13569 with tags, fused parts or gaps DEL508-508): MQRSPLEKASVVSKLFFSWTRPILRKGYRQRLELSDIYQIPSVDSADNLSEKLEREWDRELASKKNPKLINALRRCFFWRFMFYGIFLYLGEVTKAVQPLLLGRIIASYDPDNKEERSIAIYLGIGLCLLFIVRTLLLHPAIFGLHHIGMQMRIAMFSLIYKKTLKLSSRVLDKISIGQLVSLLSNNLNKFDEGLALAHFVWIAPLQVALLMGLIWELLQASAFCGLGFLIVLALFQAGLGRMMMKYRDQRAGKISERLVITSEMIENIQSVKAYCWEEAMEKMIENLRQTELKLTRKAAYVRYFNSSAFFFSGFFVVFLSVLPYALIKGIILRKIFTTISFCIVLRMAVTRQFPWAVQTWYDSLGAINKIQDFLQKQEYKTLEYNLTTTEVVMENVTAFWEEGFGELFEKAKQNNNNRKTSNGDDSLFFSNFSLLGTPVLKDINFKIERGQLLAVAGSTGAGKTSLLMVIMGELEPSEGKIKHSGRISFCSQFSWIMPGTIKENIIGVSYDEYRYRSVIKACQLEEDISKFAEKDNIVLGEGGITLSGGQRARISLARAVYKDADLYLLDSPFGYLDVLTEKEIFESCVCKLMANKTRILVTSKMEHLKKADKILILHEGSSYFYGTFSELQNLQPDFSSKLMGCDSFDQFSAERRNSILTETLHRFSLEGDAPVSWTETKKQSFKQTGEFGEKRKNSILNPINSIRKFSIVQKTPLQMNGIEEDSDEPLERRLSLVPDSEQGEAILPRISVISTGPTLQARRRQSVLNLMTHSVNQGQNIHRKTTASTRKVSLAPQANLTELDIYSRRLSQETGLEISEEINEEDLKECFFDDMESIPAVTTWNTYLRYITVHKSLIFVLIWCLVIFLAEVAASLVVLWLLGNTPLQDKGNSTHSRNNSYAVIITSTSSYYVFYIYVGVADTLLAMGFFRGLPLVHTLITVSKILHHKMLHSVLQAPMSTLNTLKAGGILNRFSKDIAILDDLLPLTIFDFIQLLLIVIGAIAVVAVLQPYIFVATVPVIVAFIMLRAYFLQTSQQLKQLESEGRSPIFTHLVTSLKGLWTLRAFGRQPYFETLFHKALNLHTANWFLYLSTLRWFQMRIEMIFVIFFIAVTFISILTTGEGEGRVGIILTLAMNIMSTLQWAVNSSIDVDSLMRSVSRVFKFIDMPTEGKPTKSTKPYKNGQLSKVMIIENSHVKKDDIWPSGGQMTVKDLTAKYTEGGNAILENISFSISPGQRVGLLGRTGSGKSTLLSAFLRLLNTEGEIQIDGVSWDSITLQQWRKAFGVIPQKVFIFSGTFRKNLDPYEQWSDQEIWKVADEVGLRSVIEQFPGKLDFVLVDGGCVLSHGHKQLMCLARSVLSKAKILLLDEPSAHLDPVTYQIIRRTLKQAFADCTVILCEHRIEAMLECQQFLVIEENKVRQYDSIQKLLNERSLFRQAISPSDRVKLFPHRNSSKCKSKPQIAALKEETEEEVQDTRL
In short: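 Cells were seeded with 0.5 μg/mL doxycycline and held 68 h at 37 °C. Test compounds plus 3 μM co-corrector (final 0.1% DMSO) were then added for 20 h at 33 °C. Washed cells received HRP substrate, and luminescence was normalized between DMSO and 3 μM co-corrector controls.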

ΔF508-CFTR [2] = molecular target: T1, ΔF508-CFTR; assay: CFTR cell surface levels using HRP-tagged ΔF508-CFTR expressing CFBE cells, intrinsic corrector capacity; assay type: cell-based; details: HRP-tagged ΔF508-CFTR expressing CFBE cells, intrinsic corrector capacity (no co-corrector), 33° C., 20 hours; for EC50: read-out: EC50
In short: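 Here the cells express ΔF508-CFTR with horseradish peroxidase inserted in extracellular loop 4, so only rescued channel at the surface gives luminescent signal. Compounds act on their own, 20 h at the reduced temperature of 33 °C; values are percent activity relative to DMSO and a 3 μM corrector.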

Row | SMILES | % Activation (ΔF508-CFTR [1]) [%] | EC50 (ΔF508-CFTR [1]) [nM] | % Activation (ΔF508-CFTR [2]) [%] | EC50 (ΔF508-CFTR [2]) [nM]
1 | CO[C@H]1C[C@@H](c2nn(-c3ccccc3)c3nc(C(=O)O)cc(-c4ccc(N5CCC(C#N)CC5)nc4)c32)C1 [compound 421, 4-[6-(4-cyanopiperidin-1-yl)pyridin-3-yl]-3-(cis-3-methoxycyclobutyl)-1-phenyl-1H-pyrazolo[3,4-b]pyridine-6-carboxylic acid] | 368.65 | 723 | 184.4 | 1290
2 | COCCN(C)c1cc(C(=O)O)nc2c1c(C1CCC1)nn2-c1ccccc1 [compound 422, 3-cyclobutyl-4-[(2-methoxyethyl)(methyl)amino]-1-phenyl-1H-pyrazolo[3,4-b]pyridine-6-carboxylic acid] | 336.05 | 1000 | 131.9 | 1620
3 | O=C(O)c1cc(N2CCC3(C2)CC3(F)F)c2c(C3CCC3)nn(-c3ccccc3)c2n1 (centres unmarked) [compound 423, 3-cyclobutyl-4-(1,1-difluoro-5-azaspiro [2. 4]heptan-5-yl)-1-phenyl-1H-pyrazolo[3,4-b]pyridine-6-carboxylic acid] | 299.25 | 920 | 113.4 | 934
4 | O=C(O)c1cc(N2CC3(CCCCO3)C2)c2c(C3CCC3)nn(-c3ccccc3)c2n1 [compound 424, 3-cyclobutyl-4-(5-oxa-2-azaspiro[3.5]nonan-2-yl)-1-phenyl-1H-pyrazolo[3,4-b]pyridine-6-carboxylic acid] | 254.9 | 829 | 86.32 | 1080
5 | O=C(O)c1cc(N2CC3(CCOCC3)C2)c2c(C3CCC3)nn(-c3ccccc3)c2n1 [compound 425, 3-cyclobutyl-4-(7-oxa-2-azaspiro[3.5]nonan-2-yl)-1-phenyl-1H-pyrazolo[3,4-b]pyridine-6-carboxylic acid] | 262.45 | 349 | 123.35 | 990
6 | O=C(O)c1cc(N2CC3(CCC3)C2)c2c(C3CCC3)nn(-c3ccccc3)c2n1 [compound 426, 4-(2-azaspiro[3.3]heptan-2-yl)-3-cyclobutyl-1-phenyl-1H-pyrazolo[3,4-b]pyridine-6-carboxylic acid] | 253.5 | 897 | 76.06 | 998
7 | O=C(O)c1cc(N2CCC(COCc3ccccc3)CC2)c2c(C3CCC3)nn(-c3ccccc3)c2n1 [compound 427, 4-{4-[(benzyloxy)methyl]piperidin-1-yl}-3-cyclobutyl-1-phenyl-1H-pyrazolo[3,4-b]pyridine-6-carboxylic acid] | 418.9 | 577 | 200.4 | 663
8 | CO[C@H]1CC[C@@H](Oc2cc(C(=O)O)nc3c2c(C2CCC2)nn3-c2ccccc2)CC1 [compound 428, 3-cyclobutyl-4-[(cis-4-methoxycyclohexyl)oxy]-1-phenyl-1H-pyrazolo[3,4-b]pyridine-6-carboxylic acid] | 296 | 380 | 128.05 | 978
9 | CO[C@H]1CC[C@H](Oc2cc(C(=O)O)nc3c2c(C2CCC2)nn3-c2ccccc2)CC1 [compound 429, 3-cyclobutyl-4-[(trans-4-methoxycyclohexyl)oxy]-1-phenyl-1H-pyrazolo[3,4-b]pyridine-6-carboxylic acid] | 268.2 | 370 | 114.95 | 979
10 | CC1(C)CC(c2nn(-c3ccccc3)c3nc(C(=O)O)cc(-c4ccc(N5CCC(C#N)CC5)nc4)c23)C1 [compound 430, 4-[6-(4-cyanopiperidin-1-yl)pyridin-3-yl]-3-(3,3-dimethylcyclobutyl)-1-phenyl-1H-pyrazolo[3,4-b]pyridine-6-carboxylic acid] | 342.17 | 243 | 175.73 | 373
11 | COCC1CCN(c2cc(C(=O)O)nc3c2c(C(C)C)nn3C2CCCCC2)CC1 [compound 431, 1-cyclohexyl-4-[4-(methoxymethyl)piperidin-1-yl]-3-(propan-2-yl)-1H-pyrazolo[3,4-b]pyridine-6-carboxylic acid] | 416.6 | 425 | 198.57 | 543
12 | N#CC1CCN(c2ccc(-c3cc(C(=O)O)nc4c3c([C@H]3C[C@@H](F)C3)nn4-c3ccccc3)cn2)CC1 [compound 432, 4-[6-(4-cyanopiperidin-1-yl)pyridin-3-yl]-3-(cis-3-fluorocyclobutyl)-1-phenyl-1H-pyrazolo[3,4-b]pyridine-6-carboxylic acid] | 388.23 | 298 | 197.97 | 561
13 | N#CC1CCN(c2ccc(-c3cc(C(=O)O)nc4c3c([C@H]3C[C@H](F)C3)nn4-c3ccccc3)cn2)CC1 [compound 433, 4-[6-(4-cyanopiperidin-1-yl)pyridin-3-yl]-3-(trans-3-fluorocyclobutyl)-1-phenyl-1H-pyrazolo[3,4-b]pyridine-6-carboxylic acid] | 369.1 | 367 | 185.45 | 629
14 | O=C(O)c1cc(OC[C@H](F)C2CCOCC2)c2c(C3CCC3)nn(-c3ccccc3)c2n1 [compound 434, 3-cyclobutyl-4-[(2R)-2-fluoro-2-(oxan-4-yl)ethoxy]-1-phenyl-1H-pyrazolo[3,4-b]pyridine-6-carboxylic acid] | 342.8 | 328 | 154.17 | 581
15 | O=C(O)c1cc(OCC2CCC(F)(F)C2)c2c(C3CCC3)nn(-c3ccccc3)c2n1 (centres unmarked) [compound 435, 3-cyclobutyl-4-[(3,3-difluorocyclopentyl)methoxy]-1-phenyl-1H-pyrazolo[3,4-b]pyridine-6-carboxylic acid] | 290.05 | 453 | 116.7 | 773
16 | O=C(O)c1cc(OCCN2CCS(=O)(=O)CC2)c2c(C3CCC3)nn(-c3ccccc3)c2n1 [compound 436, 3-cyclobutyl-4-[2-(1,1-dioxo-lλ^6,4-thiazinan-4-yl)ethoxy]-1-phenyl-1H-pyrazolo[3,4-b]pyridine-6-carboxylic acid] | 157.15 | 2510 | 24.16 | 4170
17 | CC(C)c1nn(-c2ccnc(N3CCOCC3)c2)c2nc(C(=O)O)cc(-c3ccc(N4CCC(C#N)CC4)nc3)c12 [compound 437, 4-[6-(4-cyanopiperidin-1-yl)pyridin-3-yl]-1-[2-(morpholin-4-yl)pyridin-4-yl]-3-(propan-2-yl)-1H-pyrazolo[3,4-b]pyridine-6-carboxylic acid] | 419.53 | 795 | 247.47 | 1230
18 | COC(C)(C)C1CCN(c2cc(C(=O)O)nc3c2c(C(C)C)nn3-c2ccc(F)cc2)CC1 [compound 438, 1-(4-fluorophenyl)-4-[4-(2-methoxypropan-2-yl)piperidin-1-yl]-3-(propan-2-yl)-1H-pyrazolo[3,4-b]pyridine-6-carboxylic acid] | 507.27 | 387 | 277.03 | 331
19 | CN(c1cc(C(=O)O)nc2c1c(C1CCC1)nn2-c1ccccc1)[C@H]1C[C@@H](OC(C)(C)C)C1 [compound 439, 4-[(cis-3-tert-butoxycyclobutyl)(methyl)amino]-3-cyclobutyl-1-phenyl-1H-pyrazolo[3,4-b]pyridine-6-carboxylic acid] | 312.85 | 1110 | 120.85 | 1120
20 | CC1CN(c2cc(C(=O)O)nc3c2c(C2CCC2)nn3-c2ccccc2)C1 [compound 440, 3-cyclobutyl-4-(3-methylazetidin-1-yl)-1-phenyl-1H-pyrazolo[3,4-b]pyridine-6-carboxylic acid] | 308.95 | 1930 | 104.7 | 1920
21 | O=C(O)c1cc(N2CCC(F)(F)C2)c2c(C3CCC3)nn(-c3ccccc3)c2n1 [compound 441, 3-cyclobutyl-4-(3,3-difluoropyrrolidin-1-yl)-1-phenyl-1H-pyrazolo[3,4-b]pyridine-6-carboxylic acid] | 289.75 | 1510 | 111.85 | 2050
22 | O=C(O)c1cc(N2CCC(C(F)(F)F)C2)c2c(C3CCC3)nn(-c3ccccc3)c2n1 (centres unmarked) [compound 442, 3-cyclobutyl-1-phenyl-4-[3-(trifluoromethyl)pyrrolidin-1-yl]-1H-pyrazolo[3,4-b]pyridine-6-carboxylic acid] | 321.95 | 655 | 137.7 | 1080
23 | O=C(O)c1cc(N2CCC(N3CCCC3)CC2)c2c(C3CCC3)nn(-c3ccccc3)c2n1 [compound 443, 3-cyclobutyl-1-phenyl-4-[4-(pyrrolidin-1-yl)piperidin-1-yl]-1H-pyrazolo[3,4-b]pyridine-6-carboxylic acid] | 317.25 | 1470 | 146.9 | 2300
